Measured values: patent US9458165B2, “DOT1L inhibitors” (Dana-Farber Cancer Institute, Inc., priority 2014, dated 2016)

Tests used:
MV4:11 cell line = test: Anti-proliferation study; format: cell-based; settings: compared to CC001, FIG. 7
His6-DOT1L = His6-DOT1L (Homo sapiens, UniProt Q8TEK3); test: ALPHA assay (AlphaScreen) of probe displacement from DOT1L; format: binding; settings: FIG. 9
From the text: In and ALPHA assay binding of binding partners captured on the beads leads to an energy transfer from one bead to the other, ultimately producing a luminescent signal. Alpha assays require two bead types: donor beads and acceptor beads. Donor beads contain a photosensitizer, phthalocyanine, which converts ambient oxygen to an excited and reactive form of O2, singlet oxygen, upon illumination at 680 nm. Within its 4 μsec half-life, singlet oxygen can diffuse approximately 200 nm in solution. If an Acceptor bead is within that distance, energy is transferred from the singlet oxygen to thioxene derivatives within the Acceptor bead, resulting in light production. If the Donor bead is not in proximity of an Acceptor bead, the singlet oxygen falls to ground state and no signal is produced. […]
Two stock solutions are made at 2× the final concentration in Alpha buffer. […] Finally, 10 μL of solution B is added to the 384 well alpha plate, the plate is spun down and incubated at room temperature and read on a plate reader.
Plates can be read with an Envision plate reader, which comes with a predefined AlphaScreen program that has the correct excitation and emission wavelengths, cutoff filters, delay time, etc. […]
Plates are incubated at room temperature for 20 minutes, then read on plate reader.

H3K27Me3 mark = test: Western blot assay; format: cell-based; settings: compared to EPZ004777 and CC001, FIG. 5

Sequence of His6-DOT1L (Q8TEK3 whole entry): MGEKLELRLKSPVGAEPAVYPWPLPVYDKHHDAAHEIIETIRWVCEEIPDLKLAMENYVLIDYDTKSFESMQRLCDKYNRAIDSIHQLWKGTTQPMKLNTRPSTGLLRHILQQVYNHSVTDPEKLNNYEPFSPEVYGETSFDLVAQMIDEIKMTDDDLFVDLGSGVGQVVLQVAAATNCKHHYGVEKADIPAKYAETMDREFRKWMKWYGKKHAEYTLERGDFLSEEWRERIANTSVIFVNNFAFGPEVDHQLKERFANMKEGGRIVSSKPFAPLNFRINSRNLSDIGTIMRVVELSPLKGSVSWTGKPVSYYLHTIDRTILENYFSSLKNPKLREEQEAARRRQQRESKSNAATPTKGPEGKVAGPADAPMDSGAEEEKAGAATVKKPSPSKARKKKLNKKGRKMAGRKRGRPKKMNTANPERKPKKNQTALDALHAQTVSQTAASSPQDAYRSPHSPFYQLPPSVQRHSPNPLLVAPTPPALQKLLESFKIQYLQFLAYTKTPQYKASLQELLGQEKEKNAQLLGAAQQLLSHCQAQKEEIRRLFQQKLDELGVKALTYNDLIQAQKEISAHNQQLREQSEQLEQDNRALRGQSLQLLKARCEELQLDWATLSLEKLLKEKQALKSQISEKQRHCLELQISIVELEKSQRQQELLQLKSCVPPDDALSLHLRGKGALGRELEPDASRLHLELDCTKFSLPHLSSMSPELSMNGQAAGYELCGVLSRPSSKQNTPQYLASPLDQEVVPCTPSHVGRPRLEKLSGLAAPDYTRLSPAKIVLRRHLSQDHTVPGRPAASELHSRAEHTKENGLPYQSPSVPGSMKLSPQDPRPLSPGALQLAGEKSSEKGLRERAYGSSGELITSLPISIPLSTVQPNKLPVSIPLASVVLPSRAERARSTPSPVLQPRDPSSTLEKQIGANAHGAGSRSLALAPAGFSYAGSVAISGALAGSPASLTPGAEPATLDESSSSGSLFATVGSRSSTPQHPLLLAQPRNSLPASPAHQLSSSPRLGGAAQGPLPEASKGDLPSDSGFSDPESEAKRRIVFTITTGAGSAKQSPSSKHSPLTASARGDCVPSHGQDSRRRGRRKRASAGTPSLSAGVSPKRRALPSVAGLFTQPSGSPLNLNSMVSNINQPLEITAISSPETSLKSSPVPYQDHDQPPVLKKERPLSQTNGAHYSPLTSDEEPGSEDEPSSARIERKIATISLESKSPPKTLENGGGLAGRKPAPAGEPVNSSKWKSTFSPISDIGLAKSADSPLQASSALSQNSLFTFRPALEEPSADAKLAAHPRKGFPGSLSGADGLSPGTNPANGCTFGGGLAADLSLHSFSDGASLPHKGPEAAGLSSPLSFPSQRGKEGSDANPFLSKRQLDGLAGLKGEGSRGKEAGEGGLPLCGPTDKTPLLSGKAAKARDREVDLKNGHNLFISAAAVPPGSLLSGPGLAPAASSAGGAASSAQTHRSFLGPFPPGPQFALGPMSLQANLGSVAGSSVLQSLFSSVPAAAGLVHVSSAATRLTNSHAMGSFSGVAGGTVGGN

binding to DOT1L (ALPHA screen) (His6-DOT1L): binds to DOT1L
Compound: CC(C)N(C[C@H]1C[C@@H](n2cc(C#N)c3c(N)ncnc32)[C@H](O)[C@@H]1O)C1CC(CCc2nc3ccc(C(C)(C)C)cc3[nH]2)C1 (stereo partly drawn) [Example 1, 4-amino-7-((1R,2S,3R,4R)-4-(((3-(2-(6-(tert-butyl)-1H-benzo[d]imidazol-2-yl)ethyl)cyclobutyl)(isopropyl)amino)methyl)-2,3-dihydroxycyclopentyl)-7H-pyrrolo[2,3-d]pyrimidine-5-carbonitrile]
anti-proliferation activity (MV4:11 cell line): greater than known DOT1L inhibitor CC001
reduction of H3K27 trimethylation (H3K27Me3 mark): can reduce the H3K27 trimethylation at much lower dose compared to known DOT1L inhibitors EPZ004777 (structure shown below) and CC001
